Assay results: patent US7585871B2, “Phenanthridine carbonyl phenols” (Wyeth, priority 2004, dated 2009)

Assays:
[1] = biological target: T1, human ERα (Homo sapiens, UniProt P03372); experiment: IL-6 luciferase (IL6-luc) assay in ERα infected HAECT-1 cells; type: cell-based; settings: for IC50: ERα infected HAECT-1 cells, IL-1β, Ad5-IL-6(1250 bp).Luc virus, 15-20 h; for IL6-luc (% E2): efficacy relative to E2, value in parentheses after the IC50
T1 construct: expressed in transfected cells; host or cells: HAECT-1 cells (immortalized human aortic endothelial cells) infected with Ad5-wt-hERα adenovirus
T1 sequence (P03372 1-595): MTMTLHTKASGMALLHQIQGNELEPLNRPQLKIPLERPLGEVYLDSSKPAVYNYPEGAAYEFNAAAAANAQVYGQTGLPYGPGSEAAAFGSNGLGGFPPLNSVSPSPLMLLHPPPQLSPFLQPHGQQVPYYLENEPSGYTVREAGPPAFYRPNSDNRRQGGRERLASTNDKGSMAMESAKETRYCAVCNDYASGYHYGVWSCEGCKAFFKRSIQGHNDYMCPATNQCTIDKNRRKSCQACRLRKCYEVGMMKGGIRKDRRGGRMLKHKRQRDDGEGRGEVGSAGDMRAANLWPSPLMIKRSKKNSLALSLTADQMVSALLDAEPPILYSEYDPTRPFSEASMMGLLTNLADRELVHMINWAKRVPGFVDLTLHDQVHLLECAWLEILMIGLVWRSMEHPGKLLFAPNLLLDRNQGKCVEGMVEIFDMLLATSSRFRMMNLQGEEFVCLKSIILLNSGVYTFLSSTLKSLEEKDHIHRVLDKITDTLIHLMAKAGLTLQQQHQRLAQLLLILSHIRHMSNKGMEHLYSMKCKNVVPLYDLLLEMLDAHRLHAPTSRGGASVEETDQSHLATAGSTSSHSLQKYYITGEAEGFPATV
Procedure: (§1) After four hours, cells were washed with EBM-BSA and incubated overnight in the same medium. Following overnight incubation, cells were washed with EBM-BSA and infected for 2 hours with 6 ml of a 1:10 dilution of Ad5-3x(NFκB).Luc virus (Adenovirus luciferase expression vector driven by 3 repeats of the MHC NFκb site 5′ to the thymidine kinase promoter) in EBM-BSA. After two hours, cells were washed and incubated at 34° C. for 1 hour. […] Control (no ER infection) cells were processed as above without Ad5-wt-hERα virus infection.
(§2) ERα infected HAECT-1 cells or control cells were thawed, diluted 42× in warm EBM-BSA, plated into 96-well plates at 0.1 ml/well and incubated for 4 h at 34° C. […] After 15-20 h, cells are lysed with 50 ul of Promega Cell Culture Lysis reagent for ˜5 min at room temp on shaker. After lysing, 15 ul of lysate is transferred to luminometer plates for luciferase determination. […] Creatine kinase was determined from the rate of increase in A340 following addition of 100 uL of CK assay reagent (Sigma, cat. No 47-10) to the remainder of the cell lysate.
(§3) For IC50 and EC50 calculations, mean IL-6, luciferase or CK values versus log10 of the compound concentration were fitted to a four parameter logistic equation. The IC50/EC50 value, ‘Hill slope’, upper and lower limits of the curve were iteratively estimated.

[2] = biological target: T1, human ERα; experiment: Creatine kinase (CK) assay in ERα infected HAECT-1 cells; type: cell-based; settings: for EC50: creatine kinase in lysate of ERα infected HAECT-1 cells; for CK (% E2): efficacy relative to E2, value in parentheses after the EC50
Procedure: as §1, §2, §3

Compound	melting point [°C]	IC50 [1] [nM]	IL6-luc (% E2) [1] [%]	EC50 [2] [nM]	CK (% E2) [2] [%]	CK (% E2) at a single concentration ([2]; @ 1 μM) [% @ 1 μM]
CC[C@@H]1c2cc(F)ccc2-c2ccccc2N1C(=O)c1cccc(O)c1 [Example 21, 3-{[(6R)-6-ethyl-8-fluorophenanthridin-5(6H)-yl]carbonyl}phenol]	101 to 102	40	134			50
CC[C@@H]1c2cc(F)ccc2-c2ccccc2N1C(=O)c1ccc(O)cc1O [Example 22, 4-{[(6R)-6-ethyl-8-fluorophenanthridin-5(6H)-yl]carbonyl}benzene-1,3-diol]	98 to 100	2	106	3	38	
C[C@@H]1c2ccccc2-c2ccc(Cl)cc2N1C(=O)c1ccc(O)cc1 [Example 28, 4-{[(6R)-3-chloro-6-methylphenanthridin-5(6H)-yl]carbonyl}phenol]	273.5 to 276	6	120	69	32	

Other lines, results leading:

melting point [°C]	IC50 [1] [nM]	IL6-luc (% E2) [1] [%]	EC50 [2] [nM]	CK (% E2) [2] [%]	CK (% E2) at a single concentration ([2]; @ 1 μM) [% @ 1 μM]	Compound
184 to 187	1	107	8	20		C[C@@H]1c2ccccc2-c2ccc(F)cc2N1C(=O)c1ccc(O)cc1O (single isomer, unassigned) [Example 40]
193 to 195	4.5	95	90	37		CC1c2cc(F)ccc2-c2ccc(F)cc2N1C(=O)c1ccc(O)cc1 (racemic) [Example 42, 4-[(3,8-difluoro-6-methylphenanthridin-5(6H)-yl)carbonyl]phenol]
235.7 to 236.8	6	114	28	20		C[C@@H]1c2ccccc2-c2ccc(F)cc2N1C(=O)c1ccc(O)cc1 (single isomer, unassigned) [Example 37]
